Data taken from patent US9901097B2, “Agricultural and horticultural fungicidal composition” (Nippon Soda Co., Ltd., priority 2011, dated 2018).
Read-outs that look alike come from different tables or passages of the source.

Legend:
[1] = test system: cucumber powdery mildew disease pathogens (Sphaerotheca fuliginea); assay: Control test for cucumber powdery mildew disease (sprayed cucumber seedlings); assay type: in vivo; settings: held 7 days after inoculation; drug I alone 10 ppm
Protocol: The drug I and the drug II were dissolved in an organic solvent and a surfactant, and the prepared mixed emulsifiable concentrate was diluted with water to a predetermined concentration, and sprayed to cucumber seedlings that had been cultivated in unglazed pots (cultivar “Sagamihanjiro”, cotyledon stage). Additionally, in Tables, the symbol A indicating the drug I represents a nitrogen-containing heterocyclic compound represented by the formula (A), the symbol B indicating the drug I represents a nitrogen-containing heterocyclic compound represented by the formula (B), and the symbol C indicating the drug I represents a nitrogen-containing heterocyclic compound represented by the formula (C). Further, in Tables, the number indicating the drug II represents each of the compounds described in the numbers described above. Additionally, “-” in Tables represents that the drug was not used.
After air-drying at room temperature, the conidia of cucumber powdery mildew disease pathogens (Sphaerotheca fuliginea) was inoculated by shaking off and held in a warm room for 7 days. By investigation on the state of lesion appearance in leaves with comparison with a non-treatment case, the controlling effect was determined. The test was carried out in duplicate. In addition, the expected value of the controlling effect was calculated based on Colby's equation.
(§1) At the same time, in Comparative Example, in the case of using the drug I only and the case of using the drug II only, the test was carried out by the same method.
(§2) Additionally, the Colby's equation is E=M+N−MN/100. Here, E is the expected value of the controlling effect (%), M is the controlling effect (%) calculated from the measurement with the use of the drug I alone, and N is the controlling effect (%) calculated from the measurement with the use of the drug II alone. Additionally, in Tables, the expected values with the use of the drug alone were the same as the values calculated from the measurement, and were thus not shown.

[2] = test system: cucumber gray mold disease pathogens (Botrytis cinerea); assay: Control test for cucumber gray mold disease (sprayed cucumber seedlings); assay type: in vivo; settings: Botrytis cinerea, drug I alone 10 ppm
Protocol: The drug I and the drug II were dissolved in an organic solvent and a surfactant, and the prepared mixed emulsifiable concentrate was diluted with water to a predetermined concentration, and sprayed to cucumber seedlings that had been cultivated in unglazed pots (cultivar “Sagamihanjiro” cotyledon stage). Additionally, in Tables, the symbol A indicating the drug I represents a nitrogen-containing heterocyclic compound represented by the formula (A), the symbol B indicating the drug I represents a nitrogen-containing heterocyclic compound represented by the formula (B), and the symbol C indicating the drug I represents a nitrogen-containing heterocyclic compound represented by the formula (C). Further, the number indicating the drug II represents each of the compounds described in the numbers described above. Additionally, “-” in Tables represents that the drug was not used.
After air-drying at room temperature, a suspension of the conidia of cucumber gray mold disease pathogens (Botrytis cinerea) was inoculated by dropwise addition and held in a dark room at 20° C. with a high humidity for 3, 4, or 5 days. By investigation on the state of lesion appearance in leaves with comparison with a non-treatment case, the controlling effect was determined. The test was carried out in duplicate. In addition, the expected value of the controlling effect was calculated based on Colby's equation.
as §1, §2

Botrytis cinerea = assay: Sterilization test (growth inhibition of Botrytis cinerea in potato dextrose medium, 96-well microplate, turbidity 405 nm); assay type: cell-based; settings: Botrytis cinerea, drug I alone 0.1 ppm, read-out: Growth inhibition rate
Protocol: The solutions thus obtained were mixed to prepare fungicidal compositions.
Conidia of Botrytis cinerea were added to and dispersed in a potato dextrose culture medium. A fungicidal composition was added thereto and mixed. This was dispensed in a 96-well microplate and cultured at 20° C. for 3 days in a dark setting. Then, the turbidity was measured at a wavelength of 405 nm in a microplate reader. From comparison with the measured value of turbidity in the case of non-treatment (without the addition of the fungicidal composition), the growth inhibition rate of Botrytis cinerea (%) was calculated. The test was carried out in duplicate. Further, the expected value of the growth inhibition was calculated based on Colby's equation.
In addition, the Colby's equation is E=M+N−MN/100. Here, E is the expected value of a growth inhibition rate (%), M is the growth inhibition rate (%) calculated from the measurement with the use of the drug I alone, and N is the growth inhibition rate (%) calculated from the measurement with the use of the drug II alone. Additionally, in Tables, the expected values with the use of the drug alone were not shown, because they were the same as the values calculated from the measurement.
At the concentrations shown in Tables 6 to 8, the drug I and the drug II were dissolved separately in dimethyl sulfoxide. The obtained solution was mixed to prepare a fungicidal composition.
Using the same methods as in Example 1 and Comparative Example 1, the sterilization test was carried out. Additionally, in Tables, the expected values with the use of the drug alone were not shown, because they were the same as the values calculated from the measurement.

[3] = 72 h, read-out: Control effect (%), 3 days after inoculation
[4] = 96 h, read-out: Control effect (%), 4 days after inoculation
[5] = 96 h, read-out: Control effect, Table 9, 4 days after inoculation
[6] = 96 h, read-out: Control effect, Table 11, 4 days after inoculation
[7] = 120 h, read-out: Control effect (%), 5 days after inoculation
[8] = 120 h, read-out: Control effect, Table 10, 5 days after inoculation

Compound	Control effect (%) [1]	pest or weed control at 10 ppm [2, 3]	pest or weed control at 10 ppm [2, 4]	pest or weed control at 10 ppm [2, 5]	pest or weed control at 10 ppm [2, 6]	pest or weed control at 10 ppm [2, 7]	pest or weed control at 10 ppm [2, 8]	inhibition at 0.1 ppm (Botrytis cinerea; Example 1 (Tables 1-5))	inhibition at 0.1 ppm (Botrytis cinerea; Example 2 (Tables 6-8))
Cc1nc2c(F)cccc2cc1Oc1cccc(F)c1C(C)(C)O [B]	60%	54%	37%	50%	78%	64%	44%	19%	18%
Cc1nc2c(F)c(F)ccc2cc1Oc1cccc(F)c1C(C)(C)O [C]	30%	54%	19%	51%	76%	67%	47%	19%	21%
